Measured values reported in PMC10778976, “BAY-3827 and SBI-0206965: Potent AMPK Inhibitors That Paradoxically Increase Thr172 Phosphorylation” (International Journal of Molecular Sciences, 2023).
pIC50: −log10 of the molar value. Like-named read-outs stand apart in the source and are kept apart here.

Experiments:
[1] = biological target: T1, isolated kinase domain of the human α2 isoform (residues 1–310) (Homo sapiens, UniProt P54646); assay: Cell-free kinase assay of isolated α2 kinase domain phosphorylated on Thr172 by CaMKK2; type: biochemical; settings: for pIC50: ATP 200 µM, read-out: IC50, inhibition of human α2 kinase domain
T1 construct: human GST-tagged α2 kinase domain (1–310) was produced as described; GST; made in house
Description: AMPK assays measured the transfer of radioactivity from labelled ATP to a peptide substrate, which was separated from unreacted ATP by binding to P81 paper. This assay was described previously, except that we used [γ-^33P]ATP rather than [γ-^32P]ATP. The peptide substrate was the AMARA peptide in all experiments other than one, which analyzed allosteric activation by AMP (Figure 2A), when, for technical reasons, the SAMS peptide was used instead. With purified preparations of AMPK, it was assayed in solution, but for assays in cell lysates (Figure 3D and Figure 4D), it was first immunoprecipitated using a mixture of anti-α1 and -α2 antibodies and assayed in resuspended immunoprecipitates. After the initial immunoprecipitation of lysate containing 80 µg of protein, the pellets were washed twice with 1 mL of high salt IP buffer (50 mM Tris-HCL, pH 7.4 at 4 °C, 1 M NaCl, 1 mM EDTA, 1 mM EGTA, 50 mM NaF, 5 mM Na pyrophosphate, 1 mM dithiothreitol, 0.1% (v/v) Triton X-100) and twice with 1 mL of low salt IP buffer (as above but only 150 mM NaCl), followed by a final wash in 1 mL of assay buffer (50 mM Na Hepes, pH7.4, 150 mM NaCl, 1 mM dithiothreitol, 0.02% (v/v) Brij-35). After each wash, the pellet was recovered via centrifugation (16,000× g, 3 min) and then resuspended. The final resuspended pellets from each biological replicate were divided into two aliquots (40 µg lysate protein) to provide technical replicates and assayed as above.
Bacterially expressed heterotrimers and kinase domain constructs (Figure 1B–D) were activated through Thr172 phosphorylation using ATP and GST-tagged CaMKK2, and CaMKK2 was removed via passage through glutathione-Sepharose, as described previously.

[2] = tested on: acetyl-CoA carboxylase (ACC, Ser80) phosphorylation in U2OS cells; assay: ACC phosphorylation in U2OS cells (Western blot); type: cell-based, human; settings: 30 min inhibitor then 30 min MK-8722 (300 nM), read-out: IC50, inhibition of MK-8722-stimulated ACC phosphorylation
Procedure: (§1) T-Rex U2OS cells carrying a Flp Recombinase Target (FRT) site were generated as described previously and grown in Dulbecco’s Modified Eagle’s Medium (DMEM) supplemented with 10% (v/v) FBS and 1% (v/v) penicillin/streptomycin.
Cells were lysed rapidly in situ on culture plates using ice-cold lysis medium containing phosphatase inhibitors, as described previously.
(§2) SDS-PAGE was performed using precast NuPAGE Tris-acetate 3–8% gradient polyacrylamide gels in Tris-acetate running buffer when analyzing ACC, GBF1, or Raptor, or NuPAGE Bis-Tris 4–12% gradient polyacrylamide gels in the MOPS buffer system (ThermoFisher Scientific, Waltham, MA, USA) for other proteins (unless stated otherwise). Proteins were transferred to nitrocellulose membranes using the iBlot 2 system (ThermoFisher Scientific). Membranes were enhanced if necessary using SuperSignal Western Blot Enhancer (ThermoFisher Scientific), then blocked for 1 h in Li-Cor Odyssey blocking buffer. The membranes were probed with the appropriate primary antibody ([…]) overnight at 4 °C. Detection was performed using secondary antibody or streptavidin probe (for total ACC) coupled to IR 680 or IR 800 dye, and the membranes were scanned using the LICOR Odyssey IR imager. Protein concentrations were determined by Coomassie Blue binding with bovine serum albumin as a standard. The cellular levels of AMP and ATP were determined via direct perchloric acid extraction from cells, with LC:MS used to estimate the levels of each nucleotide.

U2OS cells = assay: Cellular AMP:ATP ratio via LC:MS in U2OS cells; type: cell-based, human
Procedure: as §1, §2

PPM1A = tested on: T2, PPM1A; assay: PPM1A activity using p-nitrophenyl phosphate; type: biochemical; settings: p-nitrophenyl phosphate substrate, concentrations as in Figure 5A
T2 construct: made in house
Procedure: To directly determine LKB1 activity, kinase assays were performed in the presence or absence of the indicated concentration of BAY-3827 or SBI-0206965 as for AMPK, except that LKBtide was used as a peptide substrate. PPM1A activity was determined using p-nitrophenyl phosphate (pNPP) as a substrate. PPM1A (5 µg) was incubated with 50 mM pNPP and 50 mM MgCl2 in Hepes buffer in the presence of a vehicle or the indicated concentration of BAY-3827 or SBI-0206965 for 10 min at 30 °C. The reaction was quenched by the addition of 1 mL of 0.5 M EDTA and the amount of product, p-nitrophenol, determined by measuring absorbance at 405 nm.

T1 sequence (P54646 1-310): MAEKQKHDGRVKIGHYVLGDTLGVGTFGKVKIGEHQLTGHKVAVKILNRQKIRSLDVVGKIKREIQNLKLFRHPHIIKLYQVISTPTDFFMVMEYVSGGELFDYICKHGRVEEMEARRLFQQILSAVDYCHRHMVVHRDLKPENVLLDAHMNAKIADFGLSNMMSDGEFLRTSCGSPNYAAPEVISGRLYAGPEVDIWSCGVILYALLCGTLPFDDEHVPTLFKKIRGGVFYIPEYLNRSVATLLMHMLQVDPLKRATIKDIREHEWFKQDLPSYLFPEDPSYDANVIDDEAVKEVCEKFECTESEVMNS

| Compound | pIC50 [1] | Apparent Vmax ([1]; BAY-3827 10 nM) [µmol/min/mg] | Apparent Vmax ([1]; BAY-3827 30 nM) [µmol/min/mg] | Apparent Vmax ([1]; BAY-3827 100 nM) [µmol/min/mg] | Apparent Vmax ([1]; BAY-3827 300 nM) [µmol/min/mg] | pIC50 [2] | pIC50 ([2]; Homo sapiens, U2OS, 0.5 h) | effect on cellular AMP:ATP ratios (U2OS cells; all concentrations used) | effect on activity of PPM1A (PPM1A) | increase in cellular AMP:ATP ratio (U2OS cells; 300 µM, 1 h incubation) [fold] |
| --- | --- | --- | --- | --- | --- | --- | --- | --- | --- | --- |
| CCc1ccccc1C(=O)Nc1n[nH]c2c(C)c(F)c(C3C(C#N)=C(C)N(C)C(C)=C3C#N)cc12 [BAY-3827] | 7.05 | 2.09 | 1.78 | 1.69 | 1.27 | 6.57 | 6.59 | did not cause any change | Lack of effect |  |
| CNC(=O)c1ccccc1Oc1nc(Nc2cc(OC)c(OC)c(OC)c2)ncc1Br [SBI-0206965] | 6.26 |  |  |  |  | 4.38 |  |  | Lack of effect | > 30 |
